According to patent US20140057895A1, “INDAZOLE- AND PYRROLOPYRIDINE-DERIVATIVE AND PHARMACEUTICAL USE THEREOF” (priority 2011, published 2014):
Marks after values point to notes of the source that are not given here.

What was measured:
[1] = target: T1, Human 5-HT4 receptor (5-HT4b) (Homo sapiens, UniProt Q13639); test: Test Example 3: Human 5-HT4 receptor binding assay, membranes of CHO-K1 cells stably expressing 5-HT4b receptors (Table 99); details: mean value of each group
T1 construct: expressed in transfected cells; membrane preparation
T1 sequence (Q13639 whole entry): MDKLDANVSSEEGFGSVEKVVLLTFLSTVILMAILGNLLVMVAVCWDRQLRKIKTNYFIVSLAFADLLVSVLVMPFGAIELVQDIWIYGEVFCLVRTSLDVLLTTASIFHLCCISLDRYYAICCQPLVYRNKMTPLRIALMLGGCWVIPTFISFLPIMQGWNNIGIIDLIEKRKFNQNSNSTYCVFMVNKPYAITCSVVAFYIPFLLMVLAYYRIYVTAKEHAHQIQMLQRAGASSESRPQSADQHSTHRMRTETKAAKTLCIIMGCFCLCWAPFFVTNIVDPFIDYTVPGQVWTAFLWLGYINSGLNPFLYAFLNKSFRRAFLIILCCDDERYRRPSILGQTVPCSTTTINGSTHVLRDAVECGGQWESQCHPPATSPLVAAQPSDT
Outline: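 Radioligand displacement: [3H]-GR113808 (0.1 nM) bound to CHO-K1 5-HT4b membranes for 30 min at 37 °C in Hepes buffer (50 mM, pH 7.4). Specific binding is total minus that with 30 μM serotonin; filter-bound radioactivity counted, IC50 derived from percent inhibition.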

[2] = test system: scopolamine and MK801-induced cognitive impairment; test: Example 5: Y-maze test, scopolamine and MK801-induced deficits, co-administration with donepezil (Table 102); assay type: in vivo, ddY mouse
Text: Thus, scopolamine-induced cognitive impairment model, one of the AD-like model, has been used to predict pharmacodynamic signals of putative procognitive compounds, utilizing the acetylcholinesterase inhibitor donepezil for illustration (See, Citations 1 and 2). The present inventors investigated the effect of each compound on reversal of scopolamine-induced deficits in performance of Y-maze test in mice, and they also investigated adjunctive effect of compounds with donepezil on reversal of deficits induced by scopolamine and MK801 in mice.
Used animal: ddY mouse (SLC)
In the experiments, the mice were grouped in the same way using Stat Preclinica (Version 1.03295; Takumi Information Technology Inc.). The selected mice were divided into 5 to 7 groups of 7 to 12 mice using the “completely randomization design by the single variable” program (Analytical program version 1.0.7), with body weight on the testing day. After grouping, p values for Bartlett's test and ANOVA across all groups were greater than 0.2, indicating no significant difference in this parameter among the groups.
The required amount of each compound was weighed and put into a glass homogenizer. The required amount of 0.5% MC (methyl cellulose) solution was added, and each compound was suspended to give a 10 mg/kg dosing suspension.
The required amount of donepezil was weighed and put into a glass homogenizer. The required amount of 0.5% MC solution was added, and donepezil was suspended to give a suspension at concentration of 1 mg/mL (10 mg/kg dosing suspension).
The required amount of scopolamine and MK801 were weighed, and saline was added to it to give 0.3 mg/mL and 0.015 mg/mL solution, respectively.
90 Min before the test, the mice were orally administered each compound, donepezil, and vehicle (0.5% methyl cellulose, 10 mL/kg). After 60 min, memory impairment was induced by administering scopolamine (0.6 mg/kg, s.c.) with (co-administration) or without (mono-administration) MK801 (0.03 mg/kg, s.c.). The control group received saline (2 mL/kg, s.c.) rather than scopolamine and MK801.
The Y-maze used herein is a three-arm maze with equal angles between all arms. The mazefloor and walls were constructed from black acrylic resin. The mice were initially placed within one arm, and the sequence and number of arm entries were recorded manually for each mouse over an 8-min period.
Data were processed and analyzed with Microsoft® Office Excel 2003. The alternation behavior was defined as entries into all three arms on consecutive occasions. The percent alternation behavior in each animal was calculated using the following formula, and rounded to one decimal place.
Alternation behavior(%)=[actual alternation/(total arm entries−2)]×100
Restoration ratio of alternation behavior (%) in each animal was calculated using the following formula, and rounded to one decimal place.
Restoration ratio of alternation behavior in each animal (%)=y Alternation behavior in each animal (%)=x Mean of alternation behavior in vehicle-treated group (group No. 1) (%)=A Mean of alternation behavior in scopolamine-treated group (group No. 2) (%)=B
Data were expressed as the mean of the percent alternation behavior, the number of total arm entries and the restoration ratio of alternation behavior.
Values of Y-maze tests are expressed as mean of alternation behavior (n=7−12).
Alternation behaviors in the scopolamine-treated groups were compared to those in the control groups using Wilcoxon rank sum test (Stat preclinical; Version 1.03295; Takumi Information Technology Inc.) with a two-sided significance level of 0.05.
Restoration of alternation behavior was analyzed using Stat Preclinica. Alternation behaviors in the Donepezil (10 mg/kg, p.o.)-treated group were compared to those in the co-administrated groups of test compounds with donepezil (10 mg/kg, p.o.) using non-parametric Dunnett multiple comparison test (Analytical program version 1.0.2) with a two-sided significance level of 0.05.

[3] = compound 0.1 mg/kg, p.o. co-administered with Donepezil 10 mg/kg, p.o.

## CC(=O)N1CCC(N2CCC(c3nc(-n4nc(C(C)C)c5cccc(F)c54)no3)CC2)CC1.Cl [Example 232, 1-(4-{3-[7-fluoro-3-(propan-2-yl)-1H-indazol-1-yl]-1,2,4-oxadiazol-5-yl}-1,4′-bipiperidin-1′-yl)ethanone hydrochloride]
[1]
  IC50: < 20 nM
[2]; compound 0.03 mg/kg, p.o. alone
  Alternation behavior (%): 46.7%
[2]; compound 0.03 mg/kg, p.o. co-administered with Donepezil 10 mg/kg, p.o.
  Alternation behavior (%): 48.5%
[2]; compound 0.1 mg/kg, p.o. alone
  Alternation behavior (%): 48.0^# %
[2]; [3]
  Alternation behavior (%): 62.4^$ %

## CC(C)c1nn(-c2noc(C3CCN(C4CCN(C(=O)CO)CC4)CC3)n2)c2c(F)cccc12 [Example 242, 1-(4-{3-[7-fluoro-3-(propan-2-yl)-1H-indazol-1-yl]-1,2,4-oxadiazol-5-yl}-1,4′-bipiperidin-1′-yl)-2-hydroxyethanone]
[1]
  IC50: < 20 nM
[2]; compound 0.1 mg/kg, p.o. alone
  Alternation behavior (%): 51.2^# %
[2]; [3]
  Alternation behavior (%): 58.6^$ %
[2]; compound 0.3 mg/kg, p.o. alone
  Alternation behavior (%): 57.4^# %
[2]; compound 0.3 mg/kg, p.o. co-administered with Donepezil 10 mg/kg, p.o.
  Alternation behavior (%): 62.5^$ %
